Biological target: Neprilysin (Oryctolagus cuniculus) (UniProt P08049)
Assay: Concentration for 50% inhibition of activity of rabbit kidney enkephalinase

Neprilysin (Oryctolagus cuniculus), sequence (P08049 whole entry, looked up): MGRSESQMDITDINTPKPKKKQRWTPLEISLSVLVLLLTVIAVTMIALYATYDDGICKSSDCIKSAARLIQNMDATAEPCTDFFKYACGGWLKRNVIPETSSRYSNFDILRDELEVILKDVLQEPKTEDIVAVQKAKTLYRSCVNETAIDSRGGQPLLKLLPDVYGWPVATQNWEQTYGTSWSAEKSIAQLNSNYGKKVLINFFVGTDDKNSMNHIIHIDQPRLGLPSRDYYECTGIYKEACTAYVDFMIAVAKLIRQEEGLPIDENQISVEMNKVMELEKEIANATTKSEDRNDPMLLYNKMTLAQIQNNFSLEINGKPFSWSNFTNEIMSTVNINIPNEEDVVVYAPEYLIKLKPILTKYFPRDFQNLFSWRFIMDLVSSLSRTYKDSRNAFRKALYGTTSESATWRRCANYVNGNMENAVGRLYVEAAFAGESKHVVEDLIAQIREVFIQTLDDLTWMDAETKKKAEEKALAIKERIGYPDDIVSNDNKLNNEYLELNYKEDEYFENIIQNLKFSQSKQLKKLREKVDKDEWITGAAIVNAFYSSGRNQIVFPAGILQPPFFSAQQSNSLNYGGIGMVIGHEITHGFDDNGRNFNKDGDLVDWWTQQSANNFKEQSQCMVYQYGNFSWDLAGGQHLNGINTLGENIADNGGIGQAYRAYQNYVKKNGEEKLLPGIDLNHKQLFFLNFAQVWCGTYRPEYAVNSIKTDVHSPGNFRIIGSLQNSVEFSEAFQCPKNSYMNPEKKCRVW

IC50 | Structure (SMILES)
0.75 nM | CC(C)C[C@H](C(=O)O)C(=O)N[C@H](CS)Cc1ccccc1
0.65 nM | C[C@H](C(=O)O)C(=O)N[C@H](CS)Cc1ccccc1
1.5 nM | CC(C)C[C@@H](C(=O)O)C(=O)N[C@H](CS)Cc1ccccc1 (racemic)
0.54 nM | C[C@@H](C(=O)O)C(=O)N[C@H](CS)Cc1ccccc1 (racemic)
2.3 nM | O=C(O)CC(=O)NC(CS)Cc1ccccc1 (single isomer, unassigned; 7a)
210 nM | O=C(O)CC(=O)NC(CS)Cc1ccccc1 (single isomer, unassigned; 7b)
